Results as given in ChEMBL document CHEMBL3994582, “A2B adenosine receptor antagonists: Design, synthesis and biological evaluation of novel xanthine derivatives” (Eur J Med Chem, 2017).

Columns and labels:
Adenosine receptor A2a = Adenosine receptor A2a (Homo sapiens, UniProt P29274); test: Displacement of [3H]-ZM-241385 from human adenosine receptor A2a expressed in HEK293 cell membranes at 0.1 uM after 90 mins by liquid scintillation counting method relative to control
[1] = target: T1, Adenosine receptor A3 (Homo sapiens) (UniProt P0DMS8); test: Displacement of [3H]-HEM-ADO from human adenosine receptor A3 expressed in HEK293 cell membranes at 1 uM after 90 mins by liquid scintillation counting method relative to control
T1 sequence (whole entry): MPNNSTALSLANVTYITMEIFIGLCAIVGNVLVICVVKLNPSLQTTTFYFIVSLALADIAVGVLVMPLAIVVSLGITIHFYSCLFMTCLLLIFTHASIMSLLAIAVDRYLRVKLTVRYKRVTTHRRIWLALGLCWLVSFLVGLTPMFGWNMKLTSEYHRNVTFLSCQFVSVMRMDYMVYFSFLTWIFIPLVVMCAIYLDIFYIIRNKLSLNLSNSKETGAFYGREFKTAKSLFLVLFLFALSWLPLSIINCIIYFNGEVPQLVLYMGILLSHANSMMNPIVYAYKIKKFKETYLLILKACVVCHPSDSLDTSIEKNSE

Liver [2] = test: Metabolic stability in human liver microsomes assessed as metabolic rate per mg protein preincubated for 5 mins followed by NADPH addition measured up to 30 mins by LC-MS/MS analysis; format: ADME, microsome; details: 0.5 h
[3] = target: T2, Adenosine receptor A1 (Homo sapiens) (UniProt P30542); test: Displacement of [3H]DPCPX from human adenosine receptor A1 expressed in HEK293 cell membranes at 0.1 uM after 90 mins by liquid scintillation counting method relative to control
T2 sequence (whole entry): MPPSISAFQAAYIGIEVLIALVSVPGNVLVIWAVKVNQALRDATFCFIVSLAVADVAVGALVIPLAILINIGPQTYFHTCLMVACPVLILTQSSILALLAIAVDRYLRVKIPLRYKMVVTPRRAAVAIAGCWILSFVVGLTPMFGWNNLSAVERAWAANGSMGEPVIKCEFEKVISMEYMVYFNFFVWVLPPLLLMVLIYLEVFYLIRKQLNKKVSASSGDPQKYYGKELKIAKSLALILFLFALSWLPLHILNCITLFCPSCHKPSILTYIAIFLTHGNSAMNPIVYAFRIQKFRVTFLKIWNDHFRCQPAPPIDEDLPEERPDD

Adenosine receptor A2b = target: T3, Adenosine receptor A2b (Homo sapiens, UniProt P29275); test: Displacement of [3H]-MRS-1754 from human adenosine receptor A2b expressed in HEK293 cell membranes after 90 mins by liquid scintillation counting method
T3 sequence (P29275 whole entry): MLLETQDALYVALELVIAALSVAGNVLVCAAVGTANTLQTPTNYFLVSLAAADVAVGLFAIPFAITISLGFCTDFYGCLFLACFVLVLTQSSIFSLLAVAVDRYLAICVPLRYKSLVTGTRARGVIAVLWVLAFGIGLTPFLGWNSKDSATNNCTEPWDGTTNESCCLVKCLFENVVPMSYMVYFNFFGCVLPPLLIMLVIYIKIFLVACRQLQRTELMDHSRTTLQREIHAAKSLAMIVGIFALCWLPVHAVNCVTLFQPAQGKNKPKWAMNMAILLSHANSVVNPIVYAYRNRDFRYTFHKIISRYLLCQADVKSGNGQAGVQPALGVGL

Liver [4] = test: Metabolic stability in mouse liver microsomes assessed as metabolic rate per mg protein preincubated for 5 mins followed by NADPH addition measured up to 30 mins by LC-MS/MS analysis; format: ADME, microsome; details: 0.5 h

Chain of Adenosine receptor A2a (P29274 whole entry): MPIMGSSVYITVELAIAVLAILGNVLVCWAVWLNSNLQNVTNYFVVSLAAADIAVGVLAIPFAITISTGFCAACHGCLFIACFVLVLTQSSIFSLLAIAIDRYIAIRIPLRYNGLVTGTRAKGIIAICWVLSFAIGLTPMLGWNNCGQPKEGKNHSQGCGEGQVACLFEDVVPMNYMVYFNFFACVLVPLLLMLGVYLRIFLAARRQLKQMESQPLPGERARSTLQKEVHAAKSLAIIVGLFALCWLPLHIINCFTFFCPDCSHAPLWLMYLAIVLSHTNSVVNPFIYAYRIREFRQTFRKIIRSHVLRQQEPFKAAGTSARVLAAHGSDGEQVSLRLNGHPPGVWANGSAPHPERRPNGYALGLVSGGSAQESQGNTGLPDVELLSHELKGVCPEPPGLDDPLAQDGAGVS

Compound | inhibition (Adenosine receptor A2a) [%] | inhibition [1] [%] | Drug metabolism (Liver [2]) [nmol/min/mg] | inhibition [3] [%] | Ki (Adenosine receptor A2b) [µM] | Drug metabolism (Liver [4]) [nmol/min/mg]
CCCn1c(=O)c2[nH]c(-c3cnn(CC4CC(=O)N(c5cccc(F)c5)C4)c3)nc2n(CC)c1=O (stereo unspecified) | 37 | 0 | 0.06 | 30 | 0.024 | 0.29
CCCn1c(=O)c2[nH]c(-c3cnn(CC4CC(=O)N(c5ccc(F)cc5F)C4)c3)nc2n(CCC)c1=O (stereo unspecified) | 45 | 0 | 0.03 | 13 | 0.019 | 0.48
CCCn1c(=O)c2[nH]c(-c3cnn(CC4CCN(c5ccc(OC(F)(F)F)cc5)C4)c3)nc2n(CCC)c1=O (stereo unspecified) | 26 | 2 | 0.16 | 23 | 0.014 | 0.15
CCCn1c(=O)c2[nH]c(-c3cnn(CC4CC(=O)N(c5cccc(F)c5)C4)c3)nc2n(CCC)c1=O (stereo unspecified) | 68 | 17 | 0.02 | 32 | 0.041 | 0.35
CCCn1c(=O)c2[nH]c(-c3cnn(CC4CC(=O)N(c5cccc(OC(F)(F)F)c5)C4)c3)nc2n(CC)c1=O (stereo unspecified) | 16 | 3 | 0.4 | 15 | 0.0175 | 0.25
CCCn1c(=O)c2[nH]c(-c3cnn(CC4CC(=O)N(c5cccc(OC)c5)C4)c3)nc2n(CCC)c1=O (stereo unspecified) | 46 | 11 | 0.18 | 22 | 0.0216 | 0.41
CCCn1c(=O)c2[nH]c(-c3cnn(CC4CCN(c5ccc(C)cc5)C4)c3)nc2n(CCC)c1=O (stereo unspecified) | 51 | 2 | 0.66 | 26 | 0.012 | 0.38
CCCn1c(=O)c2[nH]c(-c3cnn(CC4CC(=O)N(c5ccc(C#N)cc5)C4)c3)nc2n(CCC)c1=O (stereo unspecified) | 20 | 2 | 0.15 | 18 | 0.023 | 0
CCCn1c(=O)c2[nH]c(-c3cnn(CC4CCN(c5ccc(OC)cc5)C4)c3)nc2n(CCC)c1=O (stereo unspecified) | 53 | 3 | 0.37 | 21 | 0.013 | 0.43
CCCn1c(=O)c2[nH]c(-c3cnn(CC(=O)N4CCN(c5ccc(F)cc5F)CC4)c3)nc2n(CCC)c1=O | 56 | 0 | 0.11 | 45 | 0.0107 | 0.23
CCCn1c(=O)c2[nH]c(-c3cc(OCC4CC(=O)N(c5ccc(F)cc5)C4)no3)nc2n(CCC)c1=O (stereo unspecified) | 0 | 7 | – | 0 | 0.21 | –
CCCn1c(=O)c2[nH]c(-c3cnn(CC4CCN(c5cccc(OC)c5)C4)c3)nc2n(CCC)c1=O (stereo unspecified) | 69 | 12 | 0.78 | 43 | 0.0137 | 0.67
CCCn1c(=O)c2[nH]c(-c3cc(OCC4CC(=O)N(c5cccc(F)c5)C4)no3)nc2n(CCC)c1=O (stereo unspecified) | – | – | – | – | 0.09 | –
CCCn1c(=O)c2[nH]c(-c3cnn(CC4CC(=O)N(c5ccc(C(=O)O)cc5)C4)c3)nc2n(CCC)c1=O (stereo unspecified) | – | – | – | – | 0.077 | –
CCCn1c(=O)c2[nH]c(-c3cc(OCC4CC(=O)N(c5cccc(C(F)(F)F)c5)C4)no3)nc2n(CCC)c1=O (stereo unspecified) | 0 | 5 | – | 0 | 0.069 | –
CCCn1c(=O)c2[nH]c(-c3cnn(CC4CCN(c5cccc(F)c5)C4=O)c3)nc2n(CCC)c1=O (stereo unspecified) | – | – | – | – | 0.043 | –
CCCn1c(=O)c2[nH]c(-c3cnn(CC4CC(=O)N(c5cccc(C)c5)C4)c3)nc2n(CCC)c1=O (stereo unspecified) | 0 | 0 | 0.18 | 29 | 0.0107 | 0.46

Stronger by Ki (Adenosine receptor A2b), values ahead:

inhibition (Adenosine receptor A2a) [%] | inhibition [1] [%] | Drug metabolism (Liver [2]) [nmol/min/mg] | inhibition [3] [%] | Ki (Adenosine receptor A2b) [µM] | Drug metabolism (Liver [4]) [nmol/min/mg] | Compound
72 | 17 | – | 56 | 0.0018 | – | CCCn1c(=O)c2[nH]c(-c3cnn(CC(=O)N4CCN(c5ccc(F)c(Cl)c5)CC4)c3)nc2n(CCC)c1=O
37 | 0 | – | 33 | 0.008 | 0.25 | CCCn1c(=O)c2[nH]c(-c3cnn(CC4CC(=O)N(c5ccc(C)cc5)C4)c3)nc2n(CCC)c1=O (stereo unspecified)
24 | 0 | 0.13 | 23 | 0.004 | 0.24 | CCCn1c(=O)c2[nH]c(-c3cnn(CC4CC(=O)N(c5ccc(OC(F)(F)F)cc5)C4)c3)nc2n(CCC)c1=O (stereo unspecified)
65 | 29 | 0.14 | 40 | 0.0026 | 0.3 | CCCn1c(=O)c2[nH]c(-c3cnn(CCC4CC(=O)N(c5cccc(C(F)(F)F)c5)C4)c3)nc2n(CCC)c1=O (stereo unspecified)
58 | 11 | – | 58 | 0.005 | – | CCCn1c(=O)c2[nH]c(-c3cnn(CC(=O)N4CCN(c5ccc(C)cc5)CC4)c3)nc2n(CCC)c1=O
48 | 31 | 0.18 | 25 | 0.0065 | 0.61 | CCCn1c(=O)c2[nH]c(-c3cnn(CC4CC(=O)N(c5cccc(C(F)(F)F)c5)C4)c3)nc2n(CCC)c1=O (stereo unspecified)
51 | 27 | 0.19 | 38 | 0.009 | 0.22 | CCCn1c(=O)c2[nH]c(-c3cnn(CC4CC(=O)N(c5ccc(OC)cc5)C4)c3)nc2n(CCC)c1=O (stereo unspecified)
23 | 0 | 0.12 | 18 | 0.0045 | 0.49 | CCCn1c(=O)c2[nH]c(-c3cnn(CC4CC(=O)N(c5cccc(C(F)(F)F)c5)C4)c3)nc2n(CC)c1=O (stereo unspecified)
60 | 27 | 0.19 | 12 | 0.0012 | 0.22 | CCCn1c(=O)c2[nH]c(-c3cnn(CC(O)C4CC(=O)N(c5cccc(C(F)(F)F)c5)C4)c3)nc2n(CCC)c1=O (stereo unspecified)
30 | 17 | 0.2 | 58 | 0.006 | 0.34 | CCCn1c(=O)c2[nH]c(-c3cnn(CC4CCN(c5cccc(C(F)(F)F)c5)C4=O)c3)nc2n(CCC)c1=O (stereo unspecified)
57 | 2 | 0.01 | 38 | 0.0036 | 0 | CCCn1c(=O)c2[nH]c(-c3cnn(CC4CCN(c5cccc(C(F)(F)F)c5)C4)c3)nc2n(CCC)c1=O (stereo unspecified)
49 | 0 | 0.23 | 20 | 0.009 | 0.57 | CCCn1c(=O)c2[nH]c(-c3cnn(CC4CC(=O)N(c5cccc(OC(F)(F)F)c5)C4)c3)nc2n(CCC)c1=O (stereo unspecified)
42 | 14 | 0.06 | 31 | 0.0097 | 0.19 | CCCn1c(=O)c2[nH]c(-c3cnn(CC4CC(=O)N(c5ccc(F)cc5)C4)c3)nc2n(CCC)c1=O (stereo unspecified)
71 | 11 | – | 53 | 0.0009 | – | CCCn1c(=O)c2[nH]c(-c3cnn(CC(=O)N4CCN(c5ccc(C(F)(F)F)cc5)CC4)c3)nc2n(CCC)c1=O
15 | 18 | 0.2 | 17 | 0.004 | 0.59 | CCCn1c(=O)c2[nH]c(-c3cnn(C(C)C4CC(=O)N(c5cccc(C(F)(F)F)c5)C4)c3)nc2n(CCC)c1=O (stereo unspecified)
